Laboratory results reported in patent publication US20260226493A1, “HERBICIDE RESISTANT PLANTS” (SYNGENTA CROP PROTECTION AG, priority 2023, published 2026).

Legend:
Assay in all cases: BIO3-BIO1 mutant enzyme activity in the presence of herbicide, percentage inhibition (fluorometric DAPA assay)
Type in all cases: biochemical
Settings in all cases: read-out: percentage inhibition
[1] = biological target: T1, Arabidopsis thaliana BIO3-BIO1 (BioDA) mutants (Arabidopsis thaliana, UniProt B0F481, P347A)
T1 construct: with the predicted N-terminal mitochondrial transit peptide removed; 6xHis-tag (N); thrombin cleavage site (N); made in house; host or cells: E. coli BL21 (DE3) bioA
T1 sequence (B0F481 23-833 P347A): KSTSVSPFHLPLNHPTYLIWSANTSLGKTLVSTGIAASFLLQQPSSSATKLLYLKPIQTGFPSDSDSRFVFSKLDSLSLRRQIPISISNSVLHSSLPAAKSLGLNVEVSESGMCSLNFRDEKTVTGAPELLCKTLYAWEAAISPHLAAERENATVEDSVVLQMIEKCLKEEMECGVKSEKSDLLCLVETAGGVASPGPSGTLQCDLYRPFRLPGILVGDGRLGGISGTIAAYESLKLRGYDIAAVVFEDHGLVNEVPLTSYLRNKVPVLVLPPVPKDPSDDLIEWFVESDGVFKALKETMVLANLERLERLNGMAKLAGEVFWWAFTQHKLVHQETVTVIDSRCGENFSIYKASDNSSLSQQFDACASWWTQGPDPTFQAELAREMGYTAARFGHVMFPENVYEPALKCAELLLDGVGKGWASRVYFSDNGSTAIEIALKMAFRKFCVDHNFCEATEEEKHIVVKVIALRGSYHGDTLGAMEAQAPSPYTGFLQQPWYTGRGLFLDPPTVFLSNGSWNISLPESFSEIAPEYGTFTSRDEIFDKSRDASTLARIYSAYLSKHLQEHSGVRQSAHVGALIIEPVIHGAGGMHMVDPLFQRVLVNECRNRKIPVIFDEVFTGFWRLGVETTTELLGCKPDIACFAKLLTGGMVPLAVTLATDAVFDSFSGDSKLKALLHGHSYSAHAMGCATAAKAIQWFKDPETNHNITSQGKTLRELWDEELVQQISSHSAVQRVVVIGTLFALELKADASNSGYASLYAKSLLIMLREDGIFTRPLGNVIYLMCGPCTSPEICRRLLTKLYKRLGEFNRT
Source text: (§1) A pet-24 plasmid containing a DNA sequence encoding each identified variant mutant of BIO3-BIO1 derived from Arabidopsis thaliana from example 5 above, as shown in Table 13 below and as shown in full in SEQ ID NOs: 15 to 155, codon-optimised for expression in E. coli, with an N-terminal 6×His-tag and thrombin cleavage site and under control of a T7 promoter, and was synthesised by Twist Bioscience, in a similar manner to SEQ ID NO:311. These plasmids were then expressed in E. coli BL21 (DE3) bioA with 50 μg/mL kanamycin and 25 μg/mL chloramphenicol selection. Overnight cultures grown at 37° C. were used to inoculate 8×500 mL AIM in shake flasks at a ratio of 1:100. Cultures were grown at 37° C., 200 rpm for 3.5 hours and then overnight at 20° C. Cells were harvested by centrifugation for 30 minutes at 10 000 g. Cells were stored at −80° C. until extraction. 30 g of cell pellet from was thawed in 120 mL of IMAC buffer A (20 mM HEPES pH7.5, 25 mM imidazole, 500 mM sodium chloride, 0.15 mM pyridoxal phosphate, 0.5 mM TCEP, 1× complete Protease Inhibitor Tablet (Roche)). The resuspension was passed through a cell disrupter at 18 000 PSI and centrifuged at 50 000 g for 25 minutes at 4° C. The His-tagged BIO3-BIO1 protein was purified from the extract supernatant on an AKTA avant chromatography system (Cytiva) using a HisTrap FF column and eluted in IMAC buffer B ((20 mM HEPES pH7.5, 500 mM imidazole, 500 mM sodium chloride, 0.15 mM pyridoxal phosphate, 0.5 mM TCEP) followed by SEC using a HiLoad 26/60 Superdex200 column in SEC buffer (25 mM HEPES pH7.5, 150 mM sodium chloride, 0.15 mM pyridoxal phosphate, 0.5 mM TCEP). Protein concentration was measured and calculated using the absorbance at 280 nm. Extracts were diluted 1 in 4 and 10 uL was analysed by SDS PAGE.
(§2) To measure BIO3-BIO1 mutant enzyme activity in the presence of herbicide, herbicides were incubated with 20 μL of enzyme mix (100 mM EPPS pH 8.6, 0.1 mM pyridoxal phosphate, 0.1 mg/mL BSA, 50 nM BIO3-BIO1 enzyme) for 10 minutes at 20° C. in a well of a 96-well half-area black plate, followed by the addition of 20 μL of substrate mix (final concentration of 100 mM EPPS pH 8.6, 0.1 mM pyridoxal phosphate, 0.1 mg/mL BSA, 100 μM spermidine, 20 μM KAPA, 100 mM NaCO3) and further incubation for 75 minutes at 20° C. The reaction was terminated by the addition of 50 μL of derivatisation mix (final concentration of 250 mM borate NaOH pH 9.4, 3.6 mM o-phthalaldehyde, 7 mM β-mercaptoethanol, 17% (v/v) ethanol, 3.6% (v/v) methanol). The fluorescent product produced by the reaction of DAPA with o-phthalaldehyde and 7 mM β-mercaptoethanol was measured at 470 nm after excitation at 410 nm. The percentage inhibition was calculated as the activity in the presence of one of three concentrations of each herbicide compound A to M (note that the compounds labelled as A to M are identified hereinabove in the relevant section of the description) as a percentage of the activity in DMSO (Table 12 and 13). The percentage activity versus WT was also calculated and is shown in Table 13 and 14 (NT indicates mutation not tested in table 13, note that these mutations are tested at different compound concentrations for compounds L, M and C, and the results are shown in table 14).

[2] = biological target: T2, Arabidopsis thaliana BIO3-BIO1 (BioDA) mutants (Arabidopsis thaliana, UniProt B0F481, G608E)
T2 construct: with the predicted N-terminal mitochondrial transit peptide removed; 6xHis-tag (N); thrombin cleavage site (N); made in house; host or cells: E. coli BL21 (DE3) bioA
T2 sequence (B0F481 23-833 G608E): as the sequence (B0F481 23-833 P347A) above, with A325P, G586E counted along it
Source text: as §1, §2

[3] = biological target: T3, Arabidopsis thaliana BIO3-BIO1 (BioDA) mutants (Arabidopsis thaliana, UniProt B0F481, Q350S)
T3 construct: with the predicted N-terminal mitochondrial transit peptide removed; 6xHis-tag (N); thrombin cleavage site (N); made in house; host or cells: E. coli BL21 (DE3) bioA
T3 sequence (B0F481 23-833 Q350S): as the sequence (B0F481 23-833 P347A) above, with A325P, Q328S counted along it
Source text: as §1, §2

[4] = biological target: T4, Arabidopsis thaliana BIO3-BIO1 (BioDA) mutants (Arabidopsis thaliana, UniProt B0F481, A609I)
T4 construct: with the predicted N-terminal mitochondrial transit peptide removed; 6xHis-tag (N); thrombin cleavage site (N); made in house; host or cells: E. coli BL21 (DE3) bioA
T4 sequence (B0F481 23-833 A609I): as the sequence (B0F481 23-833 P347A) above, with A325P, A587I counted along it
Source text: as §1, §2

[5] = biological target: T5, Arabidopsis thaliana BIO3-BIO1 (BioDA) mutants (Arabidopsis thaliana, UniProt B0F481, F370L)
T5 construct: with the predicted N-terminal mitochondrial transit peptide removed; 6xHis-tag (N); thrombin cleavage site (N); made in house; host or cells: E. coli BL21 (DE3) bioA
T5 sequence (B0F481 23-833 F370L): as the sequence (B0F481 23-833 P347A) above, with A325P, F348L counted along it
Source text: as §1, §2

[6] = biological target: T6, Arabidopsis thaliana BIO3-BIO1 (BioDA) mutants (Arabidopsis thaliana, UniProt B0F481, P421A)
T6 construct: with the predicted N-terminal mitochondrial transit peptide removed; 6xHis-tag (N); thrombin cleavage site (N); made in house; host or cells: E. coli BL21 (DE3) bioA
T6 sequence (B0F481 23-833 P421A): as the sequence (B0F481 23-833 P347A) above, with A325P, P399A counted along it
Source text: as §1, §2

[7] = biological target: T7, Arabidopsis thaliana BIO3-BIO1 (BioDA) mutants (Arabidopsis thaliana, UniProt B0F481, S509I)
T7 construct: with the predicted N-terminal mitochondrial transit peptide removed; 6xHis-tag (N); thrombin cleavage site (N); made in house; host or cells: E. coli BL21 (DE3) bioA
T7 sequence (B0F481 23-833 S509I): as the sequence (B0F481 23-833 P347A) above, with A325P, S487I counted along it
Source text: as §1, §2

[8] = biological target: T8, Arabidopsis thaliana BIO3-BIO1 (BioDA) mutants (Arabidopsis thaliana, UniProt B0F481, V354L)
T8 construct: with the predicted N-terminal mitochondrial transit peptide removed; 6xHis-tag (N); thrombin cleavage site (N); made in house; host or cells: E. coli BL21 (DE3) bioA
T8 sequence (B0F481 23-833 V354L): as the sequence (B0F481 23-833 P347A) above, with A325P, V332L counted along it
Source text: as §1, §2

[9] = biological target: T9, Arabidopsis thaliana BIO3-BIO1 (BioDA) mutants (Arabidopsis thaliana, UniProt B0F481, W392M)
T9 construct: with the predicted N-terminal mitochondrial transit peptide removed; 6xHis-tag (N); thrombin cleavage site (N); made in house; host or cells: E. coli BL21 (DE3) bioA
T9 sequence (B0F481 23-833 W392M): as the sequence (B0F481 23-833 P347A) above, with A325P, W370M counted along it
Source text: as §1, §2

[10] = biological target: T10, Arabidopsis thaliana BIO3-BIO1 (BioDA) mutants (Arabidopsis thaliana, UniProt B0F481, Y511C)
T10 construct: with the predicted N-terminal mitochondrial transit peptide removed; 6xHis-tag (N); thrombin cleavage site (N); made in house; host or cells: E. coli BL21 (DE3) bioA
T10 sequence (B0F481 23-833 Y511C): as the sequence (B0F481 23-833 P347A) above, with A325P, Y489C counted along it
Source text: as §1, §2

[11] = biological target: T11, Arabidopsis thaliana BIO3-BIO1 (BioDA) mutants (Arabidopsis thaliana, UniProt B0F481, Y511M)
T11 construct: with the predicted N-terminal mitochondrial transit peptide removed; 6xHis-tag (N); thrombin cleavage site (N); made in house; host or cells: E. coli BL21 (DE3) bioA
T11 sequence (B0F481 23-833 Y511M): as the sequence (B0F481 23-833 P347A) above, with A325P, Y489M counted along it
Source text: as §1, §2

[12] = biological target: T12, Arabidopsis thaliana BIO3-BIO1 (BioDA) mutants (Arabidopsis thaliana, UniProt B0F481, S509Q)
T12 construct: with the predicted N-terminal mitochondrial transit peptide removed; 6xHis-tag (N); thrombin cleavage site (N); made in house; host or cells: E. coli BL21 (DE3) bioA
T12 sequence (B0F481 23-833 S509Q): as the sequence (B0F481 23-833 P347A) above, with A325P, S487Q counted along it
Source text: as §1, §2

CCn1c(Cn2ccc(C(F)(F)F)n2)cc(=O)c(C(=O)O)c1-c1ccc(Cl)c(Cl)c1 [Compound L, 2-(3,4-dichlorophenyl)-1-ethyl-4-oxo-6-[[3-(trifluoromethyl)pyrazol-1-yl]methyl]pyridine-3-carboxylic acid]
inhibition at 0.01 µM [1]: 8%
inhibition at 0.075 µM [1]: 23%
inhibition at 0.5 µM [1]: 47%
inhibition at 0.01 µM [2]: 31%
inhibition at 0.075 µM [2]: 58%
inhibition at 0.5 µM [2]: 68%
inhibition at 0.01 µM [3]: 11%
inhibition at 0.075 µM [3]: 38%
inhibition at 0.5 µM [3]: 59%
inhibition at 0.01 µM [4]: 29%
inhibition at 0.075 µM [4]: 20%
inhibition at 0.5 µM [4]: 0%
inhibition at 0.01 µM [5]: 0%
inhibition at 0.075 µM [5]: 14%
inhibition at 0.5 µM [5]: 38%
inhibition at 0.01 µM [6]: 15%
inhibition at 0.075 µM [6]: 16%
inhibition at 0.5 µM [6]: 21%

CCn1c(C)c(-c2ccc(F)cc2F)c(=O)c(C(=O)O)c1-c1ccc(Cl)c(Cl)c1 [Compound C, 2-(3,4-dichlorophenyl)-5-(2,4-difluorophenyl)-1-ethyl-6-methyl-4-oxo-pyridine-3-carboxylic acid]
inhibition at 0.2 µM [7]: 38%
inhibition at 1 µM [7]: 84%
inhibition at 5 µM [7]: 99%
inhibition at 0.2 µM [1]: 3%
inhibition at 1 µM [1]: 27%
inhibition at 5 µM [1]: 51%
inhibition at 0.2 µM [2]: 25%
inhibition at 1 µM [2]: 52%
inhibition at 5 µM [2]: 81%
inhibition at 0.2 µM [3]: 2%
inhibition at 1 µM [3]: 35%
inhibition at 5 µM [3]: 66%
inhibition at 0.2 µM [8]: 0%
inhibition at 1 µM [8]: 32%
inhibition at 5 µM [8]: 86%
inhibition at 0.2 µM [9]: 10%
inhibition at 1 µM [9]: 30%
inhibition at 5 µM [9]: 56%
inhibition at 0.2 µM [4]: 7%
inhibition at 1 µM [4]: 24%
inhibition at 5 µM [4]: 42%
inhibition at 0.2 µM [10]: 33%
inhibition at 1 µM [10]: 86%
inhibition at 5 µM [10]: 98%
inhibition at 0.2 µM [11]: 76%
inhibition at 1 µM [11]: 99%
inhibition at 5 µM [11]: 100%
inhibition at 0.2 µM [12]: 23%
inhibition at 1 µM [12]: 82%
inhibition at 5 µM [12]: 99%
inhibition at 0.2 µM [5]: 19%
inhibition at 1 µM [5]: 24%
inhibition at 5 µM [5]: 82%
inhibition at 0.2 µM [6]: 16%
inhibition at 1 µM [6]: 16%
inhibition at 5 µM [6]: 35%

CCOC(=O)c1nn(-c2ccc3c(c2)OC(F)(F)C(F)(F)O3)c2cccc(C(C)=O)c2c1=O [Compound A, ethyl 5-acetyl-4-oxo-1-(2,2,3,3-tetrafluoro-1,4-benzodioxin-6-yl)cinnoline-3-carboxylate]
inhibition at 1 µM [7]: 0%
inhibition at 1 µM [1]: 20%
inhibition at 1 µM [2]: 56%
inhibition at 1 µM [3]: 42%
inhibition at 1 µM [8]: 1%
inhibition at 1 µM [9]: 14%
inhibition at 1 µM [4]: 24%
inhibition at 1 µM [10]: 0%
inhibition at 1 µM [11]: 59%
inhibition at 1 µM [12]: 8%
inhibition at 1 µM [5]: 15%
inhibition at 1 µM [6]: 0%

CCn1c(-c2ccc(Cl)c(Cl)c2)c(C(=O)O)c(=O)c2cc(F)ccc21 [Compound M, 2-(3,4-dichlorophenyl)-1-ethyl-6-fluoro-4-oxo-quinoline-3-carboxylic acid]
inhibition at 0.2 µM [7]: 30%
inhibition at 1 µM [7]: 65%
inhibition at 5 µM [7]: 92%
inhibition at 0.2 µM [1]: 8%
inhibition at 1 µM [1]: 26%
inhibition at 5 µM [1]: 52%
inhibition at 0.2 µM [2]: 19%
inhibition at 1 µM [2]: 55%
inhibition at 5 µM [2]: 85%
inhibition at 0.2 µM [3]: 4%
inhibition at 1 µM [3]: 22%
inhibition at 5 µM [3]: 44%
inhibition at 0.2 µM [8]: 4%
inhibition at 1 µM [8]: 43%
inhibition at 5 µM [8]: 78%
inhibition at 0.2 µM [9]: 0%
inhibition at 1 µM [9]: 0%
inhibition at 5 µM [9]: 22%
inhibition at 0.2 µM [4]: 2%
inhibition at 1 µM [4]: 0%
inhibition at 5 µM [4]: 78%
inhibition at 0.2 µM [10]: 16%
inhibition at 1 µM [10]: 67%
inhibition at 5 µM [10]: 92%
inhibition at 0.2 µM [11]: 41%
inhibition at 1 µM [11]: 83%
inhibition at 5 µM [11]: 97%
inhibition at 0.2 µM [12]: 23%
inhibition at 1 µM [12]: 76%
inhibition at 5 µM [12]: 96%
inhibition at 0.2 µM [5]: 0%
inhibition at 1 µM [5]: 25%
inhibition at 5 µM [5]: 80%
inhibition at 0.2 µM [6]: 15%
inhibition at 1 µM [6]: 11%
inhibition at 5 µM [6]: 17%
